Like-named read-outs stand apart in the source and are kept apart here.
Key:
[1] = room temperature; cited from earlier work
[2] = assay type: physicochemical; settings: nonylphenol
Description: From the group of the phenols as defined above and substituted by aliphatic radicals, those are advantageously selected for the use according to the invention, whose melting point is below 90° C., preferably below 50° C. and especially below 20°-30° C. A low melting point of the phenol derivatives used allows the process to be carried out at correspondingly low temperatures, which has a very favorable effect on the partition coefficient KD. KD is defined as follows: [formula]
The phases were then allowed to settle and were separated, and the concentration of NMP in the two phases was determined.
After the phases had been allowed to settle, these were separated, and the concentration of NMP in the two phases was determined.
Thereupon, the phases were allowed to settle and were separated, and the concentration of NMP in the two phases was determined.
[…] After the phases had been allowed to settle, these were separated, and the concentration of NMP in the two phases was determined.

[3] = Example 1a, feed 35% NMP, phase volume ratio 1:4, room temperature
[4] = Example 1b, feed 35% NMP, phase volume ratio 1:6, room temperature
[5] = Example 1c, feed 35% NMP, phase volume ratio 1:10, room temperature
[6] = Example 1e, feed 33% NMP, phase ratio 1:2, 70° C.
[7] = Example 1f, feed 33% NMP, phase volume ratio 1:10, 70° C.
[8] = Example 1d, feed 9% NMP, phase volume ratio 1:1, room temperature

| Aqueous raffinate phase (% by weight of NMP) [2, 3] [% by weight] | Organic extract phase (% by weight of NMP) [2, 3] [% by weight] | Aqueous raffinate phase (% by weight of NMP) [2, 4] [% by weight] | Organic extract phase (% by weight of NMP) [2, 4] [% by weight] | Aqueous raffinate phase (% by weight of NMP) [2, 5] [% by weight] | Organic extract phase (% by weight of NMP) [2, 5] [% by weight] | Aqueous raffinate phase (% by weight of NMP) [2, 6] [% by weight] | Organic extract phase (% by weight of NMP) [2, 6] [% by weight] | Aqueous raffinate phase (% by weight of NMP) [2, 7] [% by weight] | Organic extract phase (% by weight of NMP) [2, 7] [% by weight] | Aqueous raffinate phase (% by weight of NMP) [2, 8] [% by weight] | Organic extract phase (% by weight of NMP) [2, 8] [% by weight] | SMILES | solubility in water [1] [% by weight] |
| --- | --- | --- | --- | --- | --- | --- | --- | --- | --- | --- | --- | --- | --- |
| – | – | – | – | – | – | – | – | – | – | – | – | Cc1cc(C)cc(O)c1 [3,5-dimethylphenol] | 0.49 |
| 0.75 | 8.2 | 0.30 | 5.8 | 0.12 | 3.4 | 9.0 | 12.4 | 1.0 | 3.4 | 0.64 | 8.3 | CN1CCCC1=O [NMP, N-methyl-2-pyrrolidone] | – |
| – | – | – | – | – | – | – | – | – | – | – | – | Cc1cccc(O)c1 [m-cresol] | 2.3 |
